Among the data in patent publication US20240199649A1 (Biosplice Therapeutics, Inc., priority 2022, published 2024) are IC50 values, retold here.

In this experiment the target is recombinant DYRK1A kinase (Homo sapiens (Human), UniProt Q13627). Kind of experiment: DYRK1A kinase assay (Ser/Thr 18 peptide Z-lyte FRET assay). Format: biochemical. The note with it: DYRK1A 0.25 μg/mL, ATP 15 μM, Ser/Thr peptide 18 4 μM; one hour at room temperature; 11-point dose-response, duplicate. The protocol:
Representative compounds were screened using the assay procedure for DYRK1A kinase activity as described below.
Each compound was dissolved in DMSO as a 10 mM stock and used to prepare compound source plates.
This is a non-radioactive assay using fluorescence resonance energy transfer (FRET) between coumarin and fluorescein to detect kinase activity which is represented as a ratio of coumarin emission/fluorescein emission.
The mixture was allowed to incubate with the representative compounds for one hour at room temperature. All reactions were performed in duplicate. Unphosphorylated (“0% Control”) and phosphorylated (“100% control”) forms of Ser/Thr 18 served as control reactions. Additionally, an 11-point dose-response curve of Staurosporine (1 uM top) was run to serve as a positive compound control.
After incubation, Development Reagent A was diluted in Development Buffer then added to the reaction and allowed to further incubate for one hour at room temperature.
Dose-response curves were generated, and inhibitory concentration (IC50) values were calculated using non-linear regression curve fit in the Dotmatics' Studies Software (Bishops Stortford, UK).
As to `CNc1nc(N[C@@H]2CCN(C)CC2(F)F)nn2ccc(-c3ccc4nnn(CC(F)F)c4n3)c12` [Compound 479, (R)—N^2-(3,3-Difluoro-1-methylpiperidin-4-yl)-5-(3-(2,2-difluoroethyl)-3H-[1,2,3]triazolo[4,5-b]pyridin-5-yl)-N4-methylpyrrolo[2,1-f][1,2,4]triazine-2,4-diamine], the 50% inhibitory concentration (IC50) (usually the point on the concentration scale where inhibition reaches its midpoint) came out at 0.6 nM.
Regarding `CNc1nc(N[C@H]2CCN(C3COC3)C[C@H]2F)nn2ccc(-c3ccc4nnn(CC(F)(F)F)c4n3)c12` [Compound 1033, N^2-((3R,4S)-3-Fluoro-1-(oxetan-3-yl)piperidin-4-yl)-N^4-methyl-5-(3-(2,2,2-trifluoroethyl)-3H-[1,2,3]triazolo[4,5-b]pyridin-5-yl)pyrrolo[2,1-f][1,2,4]triazine-2,4-diamine], the IC50 is 2 nM.
For `CNc1nc(N[C@@H]2CN(C3COC3)CC2(F)F)nn2ccc(-c3ccc4nc(C)n(CC(F)F)c4n3)c12` [Compound 368, (R)—N^2-(4,4-Difluoro-1-(oxetan-3-yl)pyrrolidin-3-yl)-5-(3-(2,2-difluoroethyl)-2-methyl-3H-imidazo[4,5-b]pyridin-5-yl)-N^4-methylpyrrolo[2,1-f][1,2,4]triazine-2,4-diamine], the 50% inhibitory concentration (IC50) was 1.2 nM.
Then `CCN1C[C@@H](Nc2nc(NC)c3c(-c4ccc5nc(C)n(CC(F)F)c5n4)ccn3n2)C(F)(F)C1` [Compound 366, (R)-5-(3-(2,2-Difluoroethyl)-2-methyl-3H-imidazo[4,5-b]pyridin-5-yl)-N^2-(1-ethyl-4,4-difluoropyrrolidin-3-yl)-N^4-methylpyrrolo[2,1-f][1,2,4]triazine-2,4-diamine], with 1.4 nM.
Regarding `Cc1nc2ccc(-c3ccn4nc(N[C@@H]5CCN(C)CC5(F)F)nc(NC5COC5)c34)nc2n1CC(F)F` [Compound 487, (R)—N2-(3,3-Difluoro-1-methylpiperidin-4-yl)-5-(3-(2,2-difluoroethyl)-2-methyl-3H-imidazo[4,5-b]pyridin-5-yl)-N4-(oxetan-3-yl)pyrrolo[2,1-f][1,2,4]triazine-2,4-diamine], the IC50 is 3.8 nM.
Take `CNc1nc(NC2CCN(C3CC(F)(F)C3)CC2)nn2ccc(-c3ccc4nc(C)n(CC(F)F)c4n3)c12` [Compound 371, N^2-(1-(3,3-Difluorocyclobutyl)piperidin-4-yl)-5-(3-(2,2-difluoroethyl)-2-methyl-3H-imidazo[4,5-b]pyridin-5-yl)-N^4-methylpyrrolo[2,1-f][1,2,4]triazine-2,4-diamine]: the IC50 was determined as 2.2 nM.
Take `CNc1nc(NC2CCC3(CC2)CN(C(C)=O)C3)nn2ccc(-c3ccc4nc(C)n(CC(F)F)c4n3)c12` [Compound 224, 1-(7-((5-(3-(2,2-Difluoroethyl)-2-methyl-3H-imidazo[4,5-b]pyridin-5-yl)-4-(methylamino)pyrrolo[2,1-f][1,2,4]triazin-2-yl)amino)-2-azaspiro[3.5]nonan-2-yl)ethan-1-one]: the concentration for half-maximal inhibition (IC50) was 0.2 nM.
On to `CNc1nc(N[C@H]2C[C@](C)(O)C2)nn2ccc(-c3cnc4nc(C)n(CC(F)F)c4c3)c12` [Compound 170, trans-3-((5-(1-(2,2-Difluoroethyl)-2-methyl-1H-imidazo[4,5-b]pyridin-6-yl)-4-(methylamino)pyrrolo[2,1-f][1,2,4]triazin-2-yl)amino)-1-methylcyclobutan-1-ol], for which the IC50 worked out at 4.8 nM.
As for `CNc1nc(N[C@@H]2CCN(C3COC3)CC2(F)F)nn2ccc(-c3ccc4nnn(CC(F)(F)F)c4n3)c12` [Compound 1036, (R)—N^2-(3,3-Difluoro-1-(oxetan-3-yl)piperidin-4-yl)-N^4-methyl-5-(3-(2,2,2-trifluoroethyl)-3H-[1,2,3]triazolo[4,5-b]pyridin-5-yl)pyrrolo[2,1-f][1,2,4]triazine-2,4-diamine], the half-inhibitory concentration (IC50) stood at 1 nM.
Then `CC(=O)N1CC[C@@H](Nc2nc(N)c3c(-c4ccc5nc(C)n(CCF)c5n4)ccn3n2)C(F)(F)C1` [Compound 998, (R)-1-(4-((4-Amino-5-(3-(2-fluoroethyl)-2-methyl-3H-imidazo[4,5-b]pyridin-5-yl)pyrrolo[2,1-f][1,2,4]triazin-2-yl)amino)-3,3-difluoropiperidin-1-yl)ethan-1-one], with 9.2 nM; and `CNc1nc(N[C@@H]2CN(C3COC3)C[C@@H]2F)nn2ccc(-c3ccc4nc(C)n(CC(F)F)c4n3)c12` [Compound 200, 5-(3-(2,2-Difluoroethyl)-2-methyl-3H-imidazo[4,5-b]pyridin-5-yl)-N^2-((3R,4S)-4-fluoro-1-(oxetan-3-yl)pyrrolidin-3-yl)-N^4-methylpyrrolo[2,1-f][1,2,4]triazine-2,4-diamine], with 1.3 nM.
Regarding `[2H]C([2H])([2H])Nc1nc(N[C@@H]2CCN(C)CC2(F)F)nn2ccc(-c3ccc4nc(C)n(CC(F)F)c4n3)c12` [Compound 382, (R)—N^2-(3,3-Difluoro-1-methylpiperidin-4-yl)-5-(3-(2,2-difluoroethyl)-2-methyl-3H-imidazo[4,5-b]pyridin-5-yl)-N^4-(methyl-d3)pyrrolo[2,1-f][1,2,4]triazine-2,4-diamine], the IC50 was found to be 3.3 nM.
Take `CNc1nc(N[C@H]2CC[C@@](C)(O)CC2)nn2ccc(-c3ccc4nc(C)n(CC(F)(F)F)c4n3)c12` [Compound 441, (1s,4s)-1-Methyl-4-((5-(2-methyl-3-(2,2,2-trifluoroethyl)-3H-imidazo[4,5-b]pyridin-5-yl)-4-(methylamino)pyrrolo[2,1-f][1,2,4]triazin-2-yl)amino)cyclohexan-1-ol]: the IC50 is 0.7 nM.
`CNc1nc(N[C@H]2CC[C@@H](OCCOC)CC2)nn2ccc(-c3ccc4nc(C)n(CC(F)F)c4n3)c12` [Compound 185, 5-(3-(2,2-Difluoroethyl)-2-methyl-3H-imidazo[4,5-b]pyridin-5-yl)-N^2-(cis-4-(2-methoxyethoxy)cyclohexyl)-N^4-methylpyrrolo[2,1-f][1,2,4]triazine-2,4-diamine]: the half-inhibitory concentration (IC50) came to 2.4 nM.
Then `CNc1nc(N[C@H]2CCN(C3CC(F)(F)C3)C[C@H]2F)nn2ccc(-c3ccc4nc(C)n(CC(F)F)c4n3)c12` [Compound 381, N^2-((3R,4S)-1-(3,3-Difluorocyclobutyl)-3-fluoropiperidin-4-yl)-5-(3-(2,2-difluoroethyl)-2-methyl-3H-imidazo[4,5-b]pyridin-5-yl)-N^4-methylpyrrolo[2,1-f][1,2,4]triazine-2,4-diamine], with 2.2 nM; and `[2H]C([2H])([2H])Nc1nc(N[C@@H]2CCN(CC)CC2(F)F)nn2ccc(-c3ccc4nc(C)n(CC(F)F)c4n3)c12` [Compound 385, (R)-5-(3-(2,2-Difluoroethyl)-2-methyl-3H-imidazo[4,5-b]pyridin-5-yl)-N^2-(1-ethyl-3,3-difluoropiperidin-4-yl)-N^4-(methyl-d3)pyrrolo[2,1-f][1,2,4]triazine-2,4-diamine], with 4.6 nM; and `CNc1nc(N[C@@H]2CCN(CCF)C[C@@H]2F)nn2ccc(-c3ccc4nc(C)n(CC(F)F)c4n3)c12` [Compound 374, 5-(3-(2,2-Difluoroethyl)-2-methyl-3H-imidazo[4,5-b]pyridin-5-yl)-N^2-((3S,4R)-3-fluoro-1-(2-fluoroethyl)piperidin-4-yl)-N^4-methylpyrrolo[2,1-f][1,2,4]triazine-2,4-diamine], with 2.2 nM.
